Test results as given in US12298297B2, “Visual cell sorting” (University of Washington, priority 2020, dated 2025).

Tests used:
hTERT RPE-1 = assay: Nuclear shape factor imaging of paclitaxel-treated cells (nuclear lobulation); assay type: cell-based, human; conditions: 0.25 nM paclitaxel, 24 hours, RPE-1 NLS-Dendra2×3 cells
Method: FIGS. 4A-4F. Visual Cell Sorting to dissect heterogeneous nuclear morphology following paclitaxel treatment. (4A) RPE-1 NLS-Dendra2×3 cells were treated for 24 hours with 0.25 nM paclitaxel or DMSO and imaged. The shape factor, which measures the degree of an object's circularity, was computed for each nucleus. One normal nucleus with a shape factor near one and one lobulated nucleus with a low shape factor are shown. The computationally determined boundaries of each nucleus are shown in blue; scale bar=10 (4B) Shape factor density plots for vehicle (DMSO) and 0.25 nM paclitaxel-treated RPE-1 cells (n≥3,914 cells per treatment). Dashed line, cutoff for lobulated nuclei (shape factor <0.65). […]
To test whether Visual Cell Sorting enables transcriptomics on cells with distinct image-based phenotypes, single cell RNA sequencing was performed on cells undergoing divergent morphologic responses to paclitaxel. […] Paclitaxel treated cells were then analyzed it was observed that 30% of paclitaxel treated cells had lobulated nuclei, defined by shape factor of less than 0.65 (FIG. 4B).
RPE-1 NLS-Dendra2×3/H2B-miRFP/NES-mBeRFP Clone 3 cells were plated at 50,000 cells per well in a 6-well plate. […] After 30 hours of treatment, cells were placed on the microscope and imaged, analyzed, and activated across 2,204 sites (˜75% coverage, avoided well edges) in 2 wells. […]

U-2 OS H3-Dendra2 cells = assay: Nucleus-to-cytoplasm (N:C) miRFP ratio of individually expressed NLS variants fused to CMPK-miRFP reporter; assay type: cell-based, human
Method: FIGS. 3A-3D. Visual Cell Sorting-derived variant scores accurately predict NLS function. (3A) Nine NLS variants were individually expressed in the CMPK-miRFP reporter in U-2 OS H3-Dendra2 cells. The median nucleus to cytoplasm (N:C) ratio of cells expressing each variant was measured by microscope and compared to its localization score derived by Visual Cell Sorting. n≥141 cells per variant per replicate. Bars, mean across at least three separate replicates. (3B) SV40 NLS variants that appeared to enhance nuclear localization were individually tested both alone and in combination. NLS variants with up to three amino acid changes were expressed in U-2 OS H3-Dendra2 cells and imaged; the median N:C ratio was quantified across cells in the same well. n≥527 cells per variant per replicate. […]
A library was based on the SV40 NLS, a 7-residue sequence containing a lysine and arginine-rich region (K/R motif) that was the first NLS to be discovered. […] The degree of nuclear localization was calculated using a nucleus-to-cytoplasm miRFP intensity ratio (N:C ratio; FIG. 9A). […]
Analysis of Metamorph-calculated nucleus and cytoplasm mean intensity values was done using Python (v3.6.5). […] Cells with no miRFP expression were removed with a gate that was determined by examination of the histogram of the mean miRFP intensity values for cells in each well. […]

Compound | cells with lobulated nuclei, defined by shape factor of less than 0.65 (hTERT RPE-1) | increase in nuclear localization compared to the wild-type SV40 NLS (median N:C ratio) (U-2 OS H3-Dendra2 cells)
CC(=O)O[C@H]1C(=O)[C@@]2(C)[C@H]([C@H](OC(=O)c3ccccc3)[C@]3(O)C[C@H](OC(=O)[C@H](O)[C@@H](NC(=O)c4ccccc4)c4ccccc4)C(C)=C1C3(C)C)[C@]1(OC(C)=O)CO[C@@H]1C[C@@H]2O [paclitaxel] | 30% | –
EPPRKKRKIGI [superNLS, optimized SV40 NLS with three missense variants, fused to the CMPK-miRFP reporter] | – | 2.3 fold
